Source: patent US8933270B2, “Use of docasatrienes, resolvins, and their stable analogs in the treatment of airway diseases and asthma” (The Brigham and Women's Hospital, Inc., priority 2002, dated 2015)
Blank lines part the entries; values can stand above or below the compound they belong to.

Tests used:
PMN infiltration = assay: Zymosan A-induced peritonitis; format: in vivo, FVB mice; details: for inhibition of PMN/leukocyte infiltration: i.v. bolus before zymosan A, lavage at 2 h
Protocol: (§1) FIG. 5 depicts Bioimpact properties of omega-3-derived Resolvins. A) Human glioma cells: Inhibition of TNF-stimulated IL-1β transcripts DBTRG-05MG cells 10^6/ml were stimulated with 50 ng/ml of human recombinant TNFα for 16 hours to induce expression of IL-1β transcripts. Concentration dependence with COX-2 products: 17-HDHA (n), 13-HDHA (l)and di-/tri-HDHA (n). […] (insets) Results are representative of RT-PCR gels of MG cells exposed to 100 nM of 13-HDHA or 17-HDHA and graphed after normalization of the IL-1β transcripts using GAPDH. B) Influence of eicosanoids and docosanoids on fMLP-induced neutrophil migration across micovascular endothelial monolayers Neutrophils (1×10^6 cells/monolayer) were exposed to vehicle containing buffer, or indicated concentrations of aspirin-triggered LXA4 analog (closed diamonds) 5S,12,18R-triHEPE (closed squares), 17R-HDHA (closed circles) or 13-HDHA (closed triangles) for 15 minutes at 37° C. Neutrophils were then layered on HMVEC monolayers and stimulated to transmigrate by a 10^−8 M fMLP gradient for 1 hr at 37° C. Transmigration was assessed by quantitation of the neutrophil marker myeloperoxidase. Results are presented as mean±SEM number of PMN (n=8-12 monolayers per condition). C) Reduction of PMN in murine peritonitis and skin pouch peritonitis: Compounds (100 ng in 120 μL sterile saline) were injected by intravenous bolus injection into the mouse tail vein and followed by 1 ml zymosan A (1 mg/ml) into the peritoneum. Peritoneal lavages were collected (2 h) and cell types were enumerated.
Human PMN transendothelial migration was quantitated by monitoring myeloperoxidase (MPO) an azurophilic granule marker as in (34, 37). Inflammatory exudates were initiated with intrapouch injection of recombinant mouse TNFα (100 ng/pouch; R&D Systems) into dorsal air pouches (10) of 6-8 wk male FVB mice fed laboratory rodent diet 5001 (Lab Diet, Purina Mills) containing less than 0.25% arachidonic acid, 1.49% EPA and 1.86% DHA followed by ASA (500 μg) at 3.5 h and 300 μg DHA/pouch at 4 h post-TNFα injection. At 6 h (within the resolution phase), pouches were lavaged (3 ml saline) and exudate cells were enumerated Inhibition of TNFα stimulated (100 ng/pouch) PMN infiltration with i.v. tail injection of either 17R-HDHA (as prepared with COX-2 vide infra), 5S,12,18R-HEPE, or a 15-epi-LXA4 analog were determined with pouch lavages taken at 4 h. Peritonitis was performed using 6 to 8-week-old FVB male mice (Charles River Laboratories) fed laboratory Rodent Diet 5001 (Purina Mills) that were anesthetized with isoflurane, and compounds to be tested (125 μl) were administered intravenously. Zymosan A in 1 ml (1 mg/ml) was injected ˜1-1.5 min later in the peritoneum. Each test compound (100 ng/incubation, i.e. 17R-HDHA in ethanol) or vehicle alone was suspended in ˜5 μl and mixed in sterile saline 120 μl. Two hours after the intraperitoneal injections, and in accordance with the Harvard Medical Area Standing Committee on Animals protocol #02570, mice were euthanized and peritoneal lavages rapidly collected for enumeration.
Peritonitis was induced in 6 to 8 week old male FVB mice by peritoneal injection of 1 mg Zymosan A. Compounds 4,17S and 10,17S-diHDHA were injected by intravenous bolus injection, 1.5 minutes before Zymosan A treatment. Two hours after induction of peritonitis, rapid peritoneal lavages were collected and cell type enumeration was performed.

[1] = system: IL-1β transcripts in DBTRG-05MG cells; assay: Inhibition of TNF-stimulated IL-1β transcripts (RT-PCR); format: cell-based, human; details: 50 ng/ml TNFα, 16 h; read-out: IC50, inhibition of TNFα-induced IL-1β transcripts / cytokine expression
Protocol: as §1, with “C) Reduction of PMN in murine peritonitis and skin pouch peritonitis: Compounds (100 ng in 120 μL sterile saline) were injected by intravenous bolus injection into the mouse tail vein and followed by 1 ml zymosan A (1 mg/ml) into the peritoneum. Peritoneal lavages were collected (2 h) and cell types were enumerated.” left out
Human glioma cells DBTRG-05MG cells (ATCC) were cultured as recommended by ATCC. […] Results were analyzed using the NIH Image program (http://rsb.info.nih.gov/nih-image).

human recombinant COX-2 = target: T1, human recombinant COX-2 (Homo sapiens, UniProt P35354); assay: Impact of NSAIDs on COX-2 conversion of DHA; format: biochemical
T1 construct: made in house; host or cells: Sf9 insect cells (microsomal fractions)
T1 sequence (P35354 18-604): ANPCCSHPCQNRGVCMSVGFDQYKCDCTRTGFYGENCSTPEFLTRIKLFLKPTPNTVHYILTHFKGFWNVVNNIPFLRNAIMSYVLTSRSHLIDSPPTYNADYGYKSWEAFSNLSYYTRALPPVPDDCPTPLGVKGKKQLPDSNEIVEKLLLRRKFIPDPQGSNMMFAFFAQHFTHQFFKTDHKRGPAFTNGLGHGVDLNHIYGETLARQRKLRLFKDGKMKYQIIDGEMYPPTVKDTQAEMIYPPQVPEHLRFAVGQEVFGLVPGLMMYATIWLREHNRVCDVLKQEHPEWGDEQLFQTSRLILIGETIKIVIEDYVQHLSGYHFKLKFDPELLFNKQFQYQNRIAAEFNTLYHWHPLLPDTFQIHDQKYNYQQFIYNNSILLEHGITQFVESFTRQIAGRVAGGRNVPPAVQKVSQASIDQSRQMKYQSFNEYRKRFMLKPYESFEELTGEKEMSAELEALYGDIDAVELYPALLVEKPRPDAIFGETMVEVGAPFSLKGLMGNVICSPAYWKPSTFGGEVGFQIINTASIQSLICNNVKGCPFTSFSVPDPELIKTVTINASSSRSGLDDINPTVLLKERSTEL
Protocol: Human recombinant COX-2 was overexpressed in Sf9 insect cells (ATCC). The microsomal fractions (˜8 μl) were suspended in Tris (100 mM, pH 8.0) as in (35). ASA was incubated (˜2 mM, 37° C., 30 min) with COX-2 before addition of DHA (10 μM), or in some experiments [1-^14C]-labeled DHA (from American Radiolabeled Chemicals, Inc.), and conversions were monitored in parallel using [1^−14C]-labeled C20:4 (with ASA) (as in FIG. 2; also see text).
Incubations were extracted with deuterium-labeled internal standards (15-HETE and C20:4) for LC-MS-MS analysis as in (33) using a Finnigan LCQ liquid chromatography ion trap tandem mass spectrometer (San Jose, Calif.) equipped with a LUNA C18-2 (150×2 mm×5 μm or 100×2 mm×5 μm) column and a rapid spectra scanning UV diode array detector that monitored UV absorbance ˜0.2 min prior to samples entering the MS-MS. All intact cell incubations and in vivo exudates were stopped with 2 ml cold methanol and kept at −80° C. for >30 minutes. Samples were extracted using C18 solid phase extraction and analyzed using GC-MS (see Table 2) (Hewlett-Packard), thin layer chromatography or tandem liquid chromatography-mass spectrometry (LC-MS-MS). Also, a Chiralcel OB-H column (4.6×250 mm; J. T. Baker) was used to determine R and S alcohol configurations of monohydroxy-PUFA using isocratic mobile phase (hexane:isopropanol; 97.5:2.5, vol:vol, with a 0.6 ml/min flow rate). Detailed procedures for isolation, quantitation and structural determination of lipid-derived mediators were recently reported (36) and used here essentially as reported for elucidation of novel products.
Results are the mean±SEM, n=3. Products were extracted, identified, and quantitated using deuterium internal standards and LC-MS-MS (see Methods).

leukocyte infiltration = assay: TNFα-induced dorsal air pouch; format: in vivo, FVB mice; details: FIG. 5C
[2] = system: airway leukocyte accumulation; assay: OVA sensitization and aerosol challenge: lung histology and BAL leukocytes; format: in vivo
Protocol: To determine if PD1 and Resolvin E1 had properties of a counter-regulatory mediator during airway inflammation, physiologically relevant quantities (2, 20 or 200 ng) were administered by intravenous injection to allergen sensitized animals just prior (30 min) to aerosol challenge on 4 consecutive days. […] In conjunction with decreased airway inflammation, levels of the counter-regulatory eicosanoid LXA4 were also […] in the presence of PD1 (data not shown).
Five to seven week old male FvB mice (Charles River Laboratories, Wilmington, Mass.) were housed in isolation cages under viral antibody-free conditions. Mice were fed a standard diet (Laboratory Rodent Diet 5001, PMI Nutrition International, Richmond, Ind.) that contained no less than 4.5% total fat with 0.26% omega-3 fatty acids and <0.01% C20:4. After Harvard Medical Area IRB approval (Protocol #02570), mice were sensitized with intraperitoneal injections of ovalbumin (OVA) (Grade III; Sigma Chemical Co., St. Louis, Mo.) (10 μg) plus 1 mg aluminum hydroxide (ALUM) (J. T. Baker Chemical Co.; Phillipsburg, N.J.) as adjuvant in 0.2 ml PBS on days 0 and 7. On days 14, 15, 16 and 17, the mice received PD1 (2, 20 or 200 ng), Resolvin E1 (200 ng) (products of biogenic synthesis (Hong, Gronert et al. 2003)), or PBS with 1.6 mM CaCl2 and 1.6 mM MgCl2 (0.1 ml) by intravenous injection 30 min prior to an aerosol challenge containing either PBS or 6% OVA for 25 min/day. On day 18, 24 h after the last aerosol challenge, airway responsiveness to aerosolized methacholine (0, 20, 50 and 75 mg, 10 sec) was measured, bilateral bronchoalveolar lavage (BAL) (2 aliquots of 1 ml PBS plus 0.6 mM EDTA) was performed or tissues were harvested for histological analysis. Lung resistance was measured using a Flexivent ventilator (SciReq, Montreal, Quebec). Resistance was measured as a function of time for each animal, and peak and average values for each dose of methacholine were recorded. No BAL or histological analysis was performed on those animals undergoing airway hyper-responsiveness or lipid extraction studies.
Tissue morphometry was performed by a member (K. Haley) of the Lung Histopathology Core Laboratory at Brigham and Women's Hospital who was blinded to the experimental conditions prior to histological analyses. Three fields per slide were examined at 200× magnification for vessels, large airways and alveoli with EOS counted at 400× magnification in randomly assigned fields. Vessels were identified by perivascular smooth muscle, and large airways were identified by at least ½ their diameter either cuboidal or columnar epithelia. Measurement of inflammatory mediators was determined in cell-free BAL fluid (2000 g, 10 min) by sensitive and specific ELISAs, in tandem, for interleukin-5 (IL-5), IL-12, IL-13, PGD2 (R&D Systems, Minneapolis, Minn.), cysteinyl LTs, (Cayman Chemical Co, Ann Arbor, Mich.), and LXA4 (Neogen, Lexington, Ky.). Cells in BALF were resuspended in PBS, enumerated by hemocytometer, and concentrated onto microscope slides by cytocentrifuge (STATspin) (265 g). Cells were stained with a Wright-Giemsa stain (Sigma Chemical Co.) to determine leukocyte differentials (after counting ≧200 cells).

SMILES: CCC(O)/C=C/C=C\C/C=C\C/C=C\C=C\[C@@H](O)CCCC(=O)O (mixture of isomers) [5S,18(+/−)-diHEPA]
potency relative to comparator at equal dose (PMN infiltration; PMN/leukocyte infiltration, FIG. 16 and FIG. 18): equipotent to Resolvin E1
inhibition of PMN/leukocyte infiltration (PMN infiltration): downregulation of PMN infiltration
inhibition of PMN/leukocyte infiltration (PMN infiltration; listed as 5S,18(+/−)-diHEPE): reduction of neutrophil infiltration

SMILES: CC/C=C\C[C@H](O)/C=C/C=C\C=C\[C@@H](O)C/C=C\CC#CCCC(=O)O [4,5-dehydro 10,17S-dihydroxy DHA]
inhibition of the PMN infiltration (PMN infiltration; 100 ng dose): 40%

SMILES: CC/C=C\C[C@H](O)/C=C/C=C\CC(O)\C=C/C=C/C=C/[C@@H](O)CCC(=O)O (stereo partly drawn) [4S,11,17R-triHDHA, 4S,11,17S,-trihydroxy-docosa-5E,7E,9Z,13Z,15E,19Z-hexaenoic acid]
inhibition of PMN/leukocyte infiltration (PMN infiltration): potent inhibitor

SMILES: CC/C=C\C[C@@H](O)/C=C/C=C\C/C=C\C=C\[C@@H](O)C/C=C\CCC(=O)O [7S,17R-diHDHA, 7S,17R-dihydroxy-docosa-4Z,8E,10Z,13Z,15E,19Z-hexaenoic acid]
inhibition of PMN/leukocyte infiltration (PMN infiltration): potent inhibitor

IC50 [1]: ~0.05 nM
SMILES: CC/C=C\C/C=C\C=C\C(O)C/C=C\C/C=C\C/C=C\CCC(=O)O (centres unmarked) [13-HDHA, 13-hydroxy-DHA]

% Increase of 17-HDHA (human recombinant COX-2; NSAID incubated 30 min with COX-2, ASA 2 mM, indomethacin 200 μM, acetaminophen 500 μM, NS398 100 μM, mean±SEM, n=3): 0.0%
inhibition at 500 µM (human recombinant COX-2; read-out: % Inhibition of 13-HDHA): 87.7 ± 4.3%
SMILES: CC(=O)Nc1ccc(O)cc1 [Acetaminophen, acetaminophen]
formation of 17R-HDHA from DHA by NSAID-treated COX-2 (human recombinant COX-2; recombinant COX-2 incubations): did not give appreciable amounts of 17R-HDHA

SMILES: CC[C@@H](O)/C=C/C=C\C[C@@H](O)/C=C/C=C/C=C\[C@@H](O)CCCC(=O)O [EPA-derived 5,12,18R series product]
prevention of leukocyte diapedesis and exudate formation relative to 15-epi-lipoxin A4 stable analog (leukocyte infiltration): as effective as a potent stable analog of 15-epi-lipoxin A4

SMILES: CC[C@@H](O)/C=C/C=C\C[C@@H](O)/C=C/C=C/C=C\[C@@H](O)CCCC(=O)O [Resolvin E1, 5S,12R,18R-trihydroxy-6Z,8E,10E,14Z,16E-eicosapentaenoic acid]
inhibition of PMN/leukocyte infiltration (PMN infiltration): reduction of neutrophil infiltration
eosinophil and lymphs (FIG. 25) ([2]; 10,17-DT 20 ng and 200 ng, Resolvin E1 200 ng): reduction
total leukocytes, EOS and Lymphs in BAL fluid ([2]; PD1 2, 20 or 200 ng, Resolvin E1 200 ng i.v.): decreased
